Data taken from US8664265B2, “Stable dosage forms of spiro and dispiro 1,2,4-trioxolane antimalarials” (Ranbaxy Laboratories Limited, priority 2005, dated 2014).

Assays:
[1] = Compatibility studies of active compound with excipients, forced degradation, total related substances by HPLC; assay type: physicochemical
Protocol: (§1) The role of excipients and water content was evaluated by conducting compatibility studies of active compound with various excipients, in different proportions and evaluating the extent of degradation by forced degradation at 60° C. over the period of 2 weeks and at 50° C. for 4 weeks. The water content was analyzed using Karl Fischer method and the total related substances (% w/w) were determined by HPLC method.

[2] = Water content by Karl Fischer method in the compatibility studies; assay type: physicochemical
Protocol: as §1

[3] = with Aerosol, Drug:Excipient 1:0.1
[4] = with Croscarmellose sodium, Drug:Excipient 1:0.5
[5] = with Cross povidone, Drug:Excipient 1:0.5
[6] = with Dicalcium phosphate, Drug:Excipient 1:2^
[7] = with Dicalcium phosphate, Drug:Excipient 1:10
[8] = with Hydroxypropyl methylcellulose 5 cps, Drug:Excipient 1:0.5
[9] = with Mg. Stearate, Drug:Excipient 1:0.1
[10] = with Micro crystalline cellulose, Drug:Excipient 1:10
[11] = with Microcrystalline cellulose, Drug:Excipient 1:2^
[12] = with Opadry ®, Drug:Excipient 1:0.5
[13] = with Pearlitol, Drug:Excipient 1:2^
[14] = with Pearlitol, Drug:Excipient 1:10
[15] = with Polyethylene glycol 400, Drug:Excipient 1:0.1
[16] = with Polyvinyl pyrrolidone K 30, Drug:Excipient 1:0.5
[17] = with Sodium lauryl sodium, Drug:Excipient 1:0.5
[18] = with Sodium starch glycolate, Drug:Excipient 1:0.5
[19] = with Starch, Drug:Excipient 1:2^
[20] = with Starch, Drug:Excipient 1:10
[21] = with Talc, Drug:Excipient 1:0.1
[22] = with Titanium dioxide, Drug:Excipient 1:0.5

CC(C)(N)CNC(=O)C[C@H]1CC[C@]2(CC1)OOC1(O2)C2CC3CC(C2)CC1C3.O=C(O)/C=C\C(=O)O (stereo partly drawn) [Active compound I, cis-adamantane-2-spiro-3′-8′-[[[(2′-amino-2′-methylpropyl)amino]carbonyl]-methyl]-1′,2′,4′-trioxaspiro[4.5]decane hydrogen maleate]
Compatibility with excipient ([1]; Microcrystalline cellulose): most satisfactory results
Compatibility with excipient ([1]; Starch, when used in higher amounts): incompatible
Compatibility with excipient ([1]; dicalcium phosphate, at 60° C.): increase in related substances
Compatibility with excipient ([1]; lactose, degradation by other mechanisms such as Maillard reaction): incompatible
Total Related Substance (% w/w) After 2 weeks/60° C. [1, 3]: 0.86 % w/w
Total Related Substance (% w/w) After 4 weeks/50° C. [1, 3]: 0.66 % w/w
Total Related Substance (% w/w) Initial [1, 3]: 0.14 % w/w
Total Related Substance (% w/w) After 2 weeks/60° C. [1, 4]: 0.35 % w/w
Total Related Substance (% w/w) After 4 weeks/50° C. [1, 4]: 0.34 % w/w
Total Related Substance (% w/w) Initial [1, 4]: 0.09 % w/w
Total Related Substance (% w/w) After 2 weeks/60° C. [1, 5]: 0.68 % w/w
Total Related Substance (% w/w) After 4 weeks/50° C. [1, 5]: 0.40 % w/w
Total Related Substance (% w/w) Initial [1, 5]: 0.13 % w/w
Total Related Substance (% w/w) After 2 weeks/60° C. [1, 6]: 1.32 % w/w
Total Related Substance (% w/w) After 4 weeks/50° C. [1, 6]: 0.77 % w/w
Total Related Substance (% w/w) Initial [1, 6]: 0.07 % w/w
Total Related Substance (% w/w) After 2 weeks/60° C. [1, 7]: 6.07 % w/w
Total Related Substance (% w/w) After 4 weeks/50° C. [1, 7]: 0.61 % w/w
Total Related Substance (% w/w) Initial [1, 7]: 0.17 % w/w
Total Related Substance (% w/w) After 2 weeks/60° C. [1, 8]: 1.05 % w/w
Total Related Substance (% w/w) After 4 weeks/50° C. [1, 8]: 0.70 % w/w
Total Related Substance (% w/w) Initial [1, 8]: 0.17 % w/w
Total Related Substance (% w/w) After 2 weeks/60° C. [1, 9]: 0.86 % w/w
Total Related Substance (% w/w) After 4 weeks/50° C. [1, 9]: 0.65 % w/w
Total Related Substance (% w/w) Initial [1, 9]: 0.13 % w/w
Total Related Substance (% w/w) After 2 weeks/60° C. [1, 10]: 1.02 % w/w
Total Related Substance (% w/w) After 4 weeks/50° C. [1, 10]: 0.78 % w/w
Total Related Substance (% w/w) Initial [1, 10]: 0.39 % w/w
Total Related Substance (% w/w) After 2 weeks/60° C. [1, 11]: 0.74 % w/w
Total Related Substance (% w/w) After 4 weeks/50° C. [1, 11]: 0.70 % w/w
Total Related Substance (% w/w) Initial [1, 11]: 0.19 % w/w
Total Related Substance (% w/w) After 2 weeks/60° C. [1, 12]: 0.96 % w/w
Total Related Substance (% w/w) After 4 weeks/50° C. [1, 12]: 1.85 % w/w
Total Related Substance (% w/w) Initial [1, 12]: 0.17 % w/w
Total Related Substance (% w/w) After 2 weeks/60° C. [1, 13]: 0.77 % w/w
Total Related Substance (% w/w) After 4 weeks/50° C. [1, 13]: 0.72 % w/w
Total Related Substance (% w/w) Initial [1, 13]: 0.14 % w/w
Total Related Substance (% w/w) After 2 weeks/60° C. [1, 14]: 0.70 % w/w
Total Related Substance (% w/w) After 4 weeks/50° C. [1, 14]: 0.46 % w/w
Total Related Substance (% w/w) Initial [1, 14]: 0.14 % w/w
Total Related Substance (% w/w) After 2 weeks/60° C. [1, 15]: 0.68 % w/w
Total Related Substance (% w/w) After 4 weeks/50° C. [1, 15]: 0.66 % w/w
Total Related Substance (% w/w) Initial [1, 15]: 0.14 % w/w
Total Related Substance (% w/w) After 2 weeks/60° C. [1, 16]: 0.79 % w/w
Total Related Substance (% w/w) After 4 weeks/50° C. [1, 16]: 0.33 % w/w
Total Related Substance (% w/w) Initial [1, 16]: 0.00 % w/w
Total Related Substance (% w/w) After 2 weeks/60° C. [1, 17]: 1.59 % w/w
Total Related Substance (% w/w) After 4 weeks/50° C. [1, 17]: 0.92 % w/w
Total Related Substance (% w/w) Initial [1, 17]: 0.15 % w/w
Total Related Substance (% w/w) After 2 weeks/60° C. [1, 18]: 0.89 % w/w
Total Related Substance (% w/w) After 4 weeks/50° C. [1, 18]: 0.43 % w/w
Total Related Substance (% w/w) Initial [1, 18]: 0.13 % w/w
Total Related Substance (% w/w) After 2 weeks/60° C. [1, 19]: 0.74 % w/w
Total Related Substance (% w/w) After 4 weeks/50° C. [1, 19]: 0.60 % w/w
Total Related Substance (% w/w) Initial [1, 19]: 0.08 % w/w
Total Related Substance (% w/w) After 2 weeks/60° C. [1, 20]: 4.13 % w/w
Total Related Substance (% w/w) After 4 weeks/50° C. [1, 20]: 0.60 % w/w
Total Related Substance (% w/w) Initial [1, 20]: 0.07 % w/w
Total Related Substance (% w/w) After 2 weeks/60° C. [1, 21]: 0.90 % w/w
Total Related Substance (% w/w) After 4 weeks/50° C. [1, 21]: 0.63 % w/w
Total Related Substance (% w/w) Initial [1, 21]: 0.15 % w/w
Total Related Substance (% w/w) After 2 weeks/60° C. [1, 22]: 0.93 % w/w
Total Related Substance (% w/w) After 4 weeks/50° C. [1, 22]: 0.57 % w/w
Total Related Substance (% w/w) Initial [1, 22]: 0.16 % w/w
Water (% w/w) [2, 3]: 0.27 % w/w
Water (% w/w) [2, 4]: 0.59 % w/w
Water (% w/w) [2, 5]: 3.49 % w/w
Water (% w/w) [2, 6]: 2.01 % w/w
Water (% w/w) [2, 7]: 2.14 % w/w
Water (% w/w) [2, 8]: 1.22 % w/w
Water (% w/w) [2, 9]: 0.46 % w/w
Water (% w/w) [2, 10]: 4.94 % w/w
Water (% w/w) [2, 11]: 3.69 % w/w
Water (% w/w) [2, 12]: 0.46 % w/w
Water (% w/w) [2, 13]: 0.02 % w/w
Water (% w/w) [2, 14]: 0.52 % w/w
Water (% w/w) [2, 15]: 0.88 % w/w
Water (% w/w) [2, 16]: 3.02 % w/w
Water (% w/w) [2, 17]: 0.79 % w/w
Water (% w/w) [2, 18]: 1.43 % w/w
Water (% w/w) [2, 19]: 4.73 % w/w
Water (% w/w) [2, 21]: 0.12 % w/w
Water (% w/w) [2, 22]: 0.18 % w/w
